According to paper PMC10141604, “Small-Molecule Inhibition of Androgen Receptor Dimerization as a Strategy against Prostate Cancer” (ACS Central Science, 2023):

Tests used:
[1] = tested on: subcutaneous xenografts of LNCaP cells; assay: LNCaP mouse xenograft study, intratumor injection; assay type: in vivo; details: 2.5 mg/kg/week; for tumor growth inhibition (TGI): LNCaP xenograft in CB17 SCID mice; for tumor volume and weight: versus vehicle
Protocol: The animal protocols were in accordance with the guidelines of the Animal Welfare Council of China, and were performed by KCBIO company (Chengdu, China). All animal use and studies were performed in compliance with all relevant ethical regulations, and were approved by the Institutional Animal Care and Use Committee (IACUC) at Kangcheng Biotechnology Co., Ltd, Sichuan, China (IACUC-202010-m-001). In brief, male CB17 SCID mice (6-8 weeks old) were housed at a constant room temperature and fed a standard rodent diet and allowed free access to water. LNCaP cells (1 × 107) suspended in 0.1 ml PBS were injected subcutaneously into the right flank of eac h CB17 SCID mice. Once tumor size reached an average tumor volume of 110 mm 3, the mice were randomized into three groups with 6 mice per group, and then intratumor injection […]
The tumor volumes were estimated by measuring length (L) and width (W) and […]
calculating volume (V= 0.5 × L × W2). Finally, the mice were sacrificed and the tumors were harvested for hematoxylin and eosin (H&E) staining. […]
Addgene), 24 ng pGL4.36[luc2P MMTV Hygro] […]
For the antagonistic models, 10 nM /well progesterone for PC3 cells , 1 nM/well dexamethasone for HeLa, and 5 nM/well aldosterone for HEK293T cells were added to stimulate the cells. Meanwhile, each cell line was treated with a series concentration of compounds (0.4, 2, and 10 μM). For the agonistic models, the cells were directly treated with the compounds without any hormones. […]
Luciferase system (#E1910, Promega).
Cell Cycle and Apoptosis for LNCaP cells […]
48 h incubation by Cell Cycle Staining Kit (#CCS012, MULTI SCIENCES) using […]

[2] = tested on: human liver cells (Chang); assay: MTT cell viability assay, Chang; assay type: cell-based; details: 72 h
Protocol: (§1) 3-(4,5-dimethythiazol-2-yl)-2,5-diphenyl-2-H-tetrazolium bromide (MTT) colorimetric assay was employed to investigate cell viability. Cells were seeded into 96-well plates with 2-5× 10^3 cells per well (5× 10^3 cells/well for LNCaP, 22RV1, NIH-3T3, GES-1, Chang, […]
(§2) NCI-H1299, U2OS, U87) for 1 day incubation at 37 °C. Then, the cells were treated with various concentrations of compounds (22.86 nM - 50 μM) and incubated for 72 h. Then, 10 μl MTT (5 mg/ml) was added into each well and incubated for 4 h. Afterwards, 100 μl of triplex 10% SDS-0.1% HCl-phosophate-buffered saline (PBS) solutions was added into each well and incubated for overnight. The absorbance at 570 nm was measured (Eon, Bioteck, Winooski, VT). […]

[3] = tested on: human gastric epithelial cell (GES-1); assay: MTT cell viability assay, GES-1; assay type: cell-based; details: 72 h
Protocol: as §1, §2

22RV1 = assay: Clonogenic (colony forming) assay, 22RV1; assay type: cell-based; details: 2 and 20 μM, 16-18 days
Protocol: 1.5× 10^3 cells/well of LNCaP or 22RV1 were seeded into a 6-well plate. After 1 day
incubation, the medium of each well was removed and washed thrice using PBS. […]

LNCaP cell line = assay: Cell cycle and apoptosis of LNCaP cells (flow cytometry); assay type: cell-based
Protocol: calculating volume (V= 0.5 × L × W2). Finally, the mice were sacrificed and the tumors were harvested for hematoxylin and eosin (H&E) staining.
Luciferase Reporter Assays for PR, GR, and MR
PC3, HeLa, and HEK293T cells were cultured using 5% CSS RPMI-1640, 5% CSS RPMI-1640 and 10% FBS DMEM media in 96-well plates for 24 h, respectively. For PR induction, PC3 (1 × 10^4 cells/well) were transfected with 50 ng pcDNA3-PRB (#89130, Addgene), 24 ng pGL4.36[luc2P MMTV Hygro] (Promega) and 5 ng Renilla using HG-TransGeneTM transfection reagent (#TG-10012, Genomeditech) for 4 h. […] The luciferase activities were assessed using the Dual-Glo Luciferase system (#E1910, Promega). […]
Cell cycle were determined after 48 h incubation by Cell Cycle Staining Kit (#CCS012, MULTI SCIENCES) using […]
Cytomic FC 500MCL flow cytometer (Beckman Coulter, Inc). Cell apoptosis were determined after 24 h incubation by Annexin V-FITC/PI apoptosis kit (#AP101, MULTI SCIENCES) using BD FACS S ORP ARIA II flow cytometer (BD Biosciences).
Graphpad Prism (v.8.4) program was adopted for statistical analysis and data were presented as the mean ± standard error of mean (SEM). The value of p was determined on the basis of at least three independent assays using Student’s t-test, one-way ANOVA or two-way ANOVA analysis.

| Compound | tumor growth inhibition (TGI) [1] [%] | tumor volume and weight [1] | cytotoxicity against Chang [2] | cytotoxicity against GES-1 [3] | colony formation of 22RV1 (22RV1) | impact on cell cycle and apoptosis (LNCaP cell line) |
| --- | --- | --- | --- | --- | --- | --- |
| CC(=O)Cc1nsc(NC(=O)c2cc(-c3cccc(C(F)(F)F)c3)oc2C)n1 [Compound M17-B15] | 83.59 | significantly inhibited | negligible cytotoxicity | negligible cytotoxicity | not | do not show an obvious impact |
| CNC(=O)c1ccc(N2C(=S)N(c3ccc(C#N)c(C(F)(F)F)c3)C(=O)C2(C)C)cc1F [Enz, enzalutamide, reference compound] | 51.35 | significantly inhibited | negligible cytotoxicity | negligible cytotoxicity | not | do not show an obvious impact |
